Experimental data from PMC5706701, “Development of a homogenous high-throughput assay for inositol hexakisphosphate kinase 1 activity” (PLoS ONE, 2017).
Where a name gives a salt, the structure may show the parent alone. Read-outs that look alike come from different tables or passages of the source.

Target: T1, Human IP6K1 (Homo sapiens, UniProt Q92551)
T1 construct: GST (N, cleaved yes); made in house; host or cells: C43 E. coli, pGEX-6P-2
Assay: IP6K1 high-throughput screen of the Sigma LOPAC (ADP-Glo Max, single point);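 also: final compound concentration 10µM in 5% DMSO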
Format: biochemical

[1] = LOPAC single-point screen, ADP-Glo Max luminescence raw signal per well
[2] = LOPAC single-point screen, Z-score from plate average and StDev
[3] = Sigma LOPAC single-point screen, ADP-Glo Max raw signal per well
[4] = Sigma LOPAC single-point screen, Z-score from plate average and StDev
[5] = LOPAC single-point screen, ADP-Glo Max raw signal per well
[6] = LOPAC single-point screen, Z-score from raw signal with plate average and StDev
[7] = LOPAC single-point screen, Z-score relative to plate average and StDev
[8] = LOPAC single-point screen, Z-score against plate average and StDev

T1 sequence (Q92551 whole entry): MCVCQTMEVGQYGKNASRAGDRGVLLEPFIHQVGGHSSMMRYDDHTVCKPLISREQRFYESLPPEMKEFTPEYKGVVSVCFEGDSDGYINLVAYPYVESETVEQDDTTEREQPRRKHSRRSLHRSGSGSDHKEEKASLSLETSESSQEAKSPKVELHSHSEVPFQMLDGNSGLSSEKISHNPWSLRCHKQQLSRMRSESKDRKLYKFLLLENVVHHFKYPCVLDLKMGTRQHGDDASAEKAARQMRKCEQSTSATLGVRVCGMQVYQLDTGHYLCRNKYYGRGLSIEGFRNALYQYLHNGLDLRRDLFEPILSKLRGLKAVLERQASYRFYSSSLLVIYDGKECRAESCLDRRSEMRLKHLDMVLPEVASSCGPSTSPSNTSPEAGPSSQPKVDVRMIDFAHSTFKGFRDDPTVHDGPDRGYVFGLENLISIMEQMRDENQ

## CC(=O)C(C)=NO [2,3-Butanedione monoxime]
[1]
  Raw Signal: 66346
[2]
  Z-score: 1.485

## O=C1CC2(CCCC2)CC(=O)N1CCCCN1CCN(c2ncccn2)CC1 [Buspirone hydrochloride]
[3]
  Raw Signal: 60893
[4]
  Z-score: 0.5248

## Nc1ncnc2c1c(-c1ccc(Oc3ccccc3)cc1)cn2C1CCCC1
[5]
  Raw Signal: 53911
[6]
  Z-score: -0.2551

## OCc1cc(C(O)CNCCCCCCOCCCCc2ccccc2)ccc1O (stereo not shown) [Salmeterol]
[1]
  Raw Signal: 52718
[7]
  Z-score: -0.6423

## COc1ccc(CCCOC(Cn2ccnc2)c2ccc(OC)cc2)cc1 (stereo not shown) [SKF 96365]
[5]
  Raw Signal: 56420
[8]
  Z-score: 0.07697

## CC[C@H](C)C(=O)O[C@H]1CCC=C2C=C[C@H](C)[C@H](CC[C@@H]3C[C@@H](O)CC(=O)O3)[C@H]21 [Mevastatin]
[1]
  Raw Signal: 50064
[7]
  Z-score: -0.7275

## CCCCCCCC/C=C\CCCCCCCC(=O)O [Oleic Acid]
[5]
  Raw Signal: 53829
[6]
  Z-score: -0.09485

## CC(C)NCC(O)COc1ccc(CCOCC2CC2)cc1 (stereo not shown) [Betaxolol hydrochloride]
[5]
  Raw Signal: 59138
[8]
  Z-score: 0.2157

## COc1ccc(CCN(C)CCc2ccc(OC)c(OC)c2)cc1OC.Cl [YS-035 hydrochloride]
[5]
  Raw Signal: 55463
[6]
  Z-score: -0.109

## NS(=O)(=O)c1cc2c(cc1Cl)NCNS2(=O)=O [Hydrochlorothiazide]
[5]
  Raw Signal: 56632
[8]
  Z-score: 0.2975

## CC12CC3CC(C)(C1)CC(N)(C3)C2 [Memantine hydrochloride]
[5]
  Raw Signal: 56169
[8]
  Z-score: 0.2983

## C[N+]1(C)CCC(OC(=O)C(c2ccccc2)c2ccccc2)CC1.[I-] [4-DAMP methiodide]
[1]
  Raw Signal: 63096
[2]
  Z-score: 1.6103

## CN(C)CC[C@@H](c1ccc(Cl)cc1)c1ccccn1 [(+)-Chlorpheniramine maleate]
[5]
  Raw Signal: 57307
[6]
  Z-score: -0.1068

## C[N+](C)(C)CC#CCOC(=O)Nc1cccc(Cl)c1.[Cl-] [McN-A-343]
[5]
  Raw Signal: 55957
[6]
  Z-score: -0.3445

## CC(CCc1ccccc1)NCC(O)c1ccc(O)c(C(N)=O)c1 (stereo not shown) [Labetalol hydrochloride]
[5]
  Raw Signal: 53329
[6]
  Z-score: -0.1789

## COc1cc(NS(C)(=O)=O)ccc1Nc1c2ccccc2nc2ccccc12 [Amsacrine hydrochloride]
[5]
  Raw Signal: 58568
[8]
  Z-score: 0.1153

## N#Cc1c(-c2ccccc2)no[n+]1[O-] [4-Phenyl-3-furoxancarbonitrile]
[5]
  Raw Signal: 53966
[8]
  Z-score: -0.07183

## Nc1nc(N)c2nc(-c3ccccc3)c(N)nc2n1 [Triamterene]
[1]
  Raw Signal: 65476
[2]
  Z-score: 1.836

## Cc1cc(C(C)(C)C)cc(C)c1CC1=NCCN1 [Xylometazoline hydrochloride]
[5]
  Raw Signal: 57404
[8]
  Z-score: 0.2681

## Br.CN1CCc2cc(O)cc3c2[C@H]1Cc1ccc(O)c(O)c1-3
[1]
  Raw Signal: 51557
[7]
  Z-score: -0.7332

## Foliosidine
[5]
  Raw Signal: 53530
[6]
  Z-score: -0.3325

## c1ccc2c(c1)CCCC2C1=NCCN1 (stereo not shown) [Tetrahydrozoline hydrochloride]
[5]
  Raw Signal: 57605
[8]
  Z-score: 0.3072

## C[C@@H](NC(=O)/C(C#N)=C/c1ccc(O)c(O)c1)c1ccccc1 [Tyrphostin AG 527]
[5]
  Raw Signal: 54153
[6]
  Z-score: -0.3635

## [N-]=[N+]=Nc1ccc(C(=O)CSC[C@H](NC(=O)CC[C@H](N)C(=O)O)C(=O)NCC(=O)O)cc1 [S-(p-Azidophenacyl)glutathione]
[5]
  Raw Signal: 57217
[6]
  Z-score: -0.1226

## O=C(O)c1cc2cc(F)ccc2[nH]1 [5-Fluoroindole-2-carboxylic acid]
  Raw Signal: 61098
  Z-score: 0.5609

## N#CC(C#N)=Cc1cc(O)c(O)c(O)c1 [Tyrphostin 25]
[1]
  Raw Signal: 46819
[7]
  Z-score: -1.788

## C#CCN(C)[C@H](C)Cc1ccccc1.Cl [R-(-)-Deprenyl hydrochloride]
[5]
  Raw Signal: 53619
[6]
  Z-score: -0.1301

## Cc1nc(N=Nc2cc(S(=O)(=O)[O-])c3cc([N+](=O)[O-])cc(S(=O)(=O)[O-])c3c2)c(COP(=O)([O-])[O-])c(C=O)c1O.[Na+].[Na+].[Na+].[Na+] [PPNDS tetrasodium]
[1]
  Raw Signal: 31816
[7]
  Z-score: -3.794

## Cl.Fc1ccc(C(OCCCc2c[nH]cn2)c2ccc(F)cc2)cc1
[5]
  Raw Signal: 51668
[6]
  Z-score: -0.458

## Cn1cnc2c(NCc3ccccc3)nc(NCCO)nc21 [Olomoucine]
[3]
  Raw Signal: 60982
[4]
  Z-score: 1.107

## Br.CCCN(CCC)[C@@H]1CCc2ccc(O)cc2C1 [R-(+)-7-Hydroxy-DPAT hydrobromide]
[1]
  Raw Signal: 62909
[2]
  Z-score: 1.572

## N=C(N)c1ccccc1 [Benzamidine hydrochloride]
[5]
  Raw Signal: 57181
[6]
  Z-score: -0.1289

## CC[C@@H](CO)NC(=O)[C@@H]1C=C2c3cccc4c3c(cn4C)C[C@H]2N(C)C1 [Methysergide maleate]
[5]
  Raw Signal: 55881
[8]
  Z-score: 0.2499

## CC1CCN=C(N)S1.Cl (racemic) [(±)-AMT hydrochloride]
[3]
  Raw Signal: 65458
[4]
  Z-score: 1.329

## Nc1c[n+](N2CCOCC2)no1.[Cl-] [3-Morpholinosydnonimine hydrochloride]
[5]
  Raw Signal: 53200
[6]
  Z-score: -0.2005

## Nc1c(S(=O)(=O)O)cc(Nc2ccc(Nc3nc(Cl)nc(Nc4cccc(S(=O)(=O)O)c4)n3)c(S(=O)(=O)O)c2)c2c1C(=O)c1ccccc1C2=O [Reactive Blue 2]
[1]
  Raw Signal: 20201
[7]
  Z-score: -6.96

## O=c1oc(Cl)c(Cl)c2ccccc12 [3,4-Dichloroisocoumarin]
[1]
  Raw Signal: 52609
[7]
  Z-score: -0.5195

## O=C(O)c1ccccc1Nc1ccccc1 [N-Phenylanthranilic acid]
[3]
  Raw Signal: 63268
[4]
  Z-score: 0.9431

## CCN1CCCC1CNC(=O)c1cc(S(N)(=O)=O)ccc1OC (racemic) [(±)-Sulpiride]
[1]
  Raw Signal: 63231
[2]
  Z-score: 1.4

## CCCOc1ccccc1-c1nc2nn[nH]c2c(=O)[nH]1 [Zaprinast]
[5]
  Raw Signal: 56198
[8]
  Z-score: 0.03384

## N.S=C(S)N1CCCC1 [Ammonium pyrrolidinedithiocarbamate]
[3]
  Raw Signal: 60867
[4]
  Z-score: 0.9409

## Cn1ccnc1 [1-Methylimidazole]
[3]
  Raw Signal: 56921
[4]
  Z-score: 0.4247

## C[C@H](CCC(=O)NCCS(=O)(=O)O)[C@H]1CC[C@H]2[C@@H]3[C@H](O)C[C@@H]4C[C@H](O)CC[C@]4(C)[C@H]3C[C@H](O)[C@]12C [Sodium Taurocholate]
  Raw Signal: 58351
  Z-score: 0.07713

## C#CCN(C)CCCOc1ccc(Cl)cc1Cl [Clorgyline hydrochloride]
[1]
  Raw Signal: 50699
[7]
  Z-score: -0.6208

## CC(O)C(C)OC(=O)[C@@H]1C[C@@H]2c3cccc4c3c(cn4C(C)C)C[C@H]2N(C)C1.O=C(O)/C=C\C(=O)O (stereo partly shown) [LY-53,857 maleate]
[3]
  Raw Signal: 58270
[4]
  Z-score: 0.6514

## C[C@]12CCC(=O)C=C1CC[C@@H]1[C@@H]2CC[C@@]2(C)[C@H]1CC[C@]2(O)C(=O)CO [Cortexolone]
[5]
  Raw Signal: 55575
[8]
  Z-score: -0.08719

## NC(N)=Nc1ccc2[nH]c3c(c2c1)C[C@@]1(O)[C@H]2Cc4ccc(O)c5c4[C@@]1(CCN2CC1CC1)[C@H]3O5.O=C(O)C(F)(F)F.O=C(O)C(F)(F)F
[1]
  Raw Signal: 65830
[2]
  Z-score: 2.166
